Structures can show the parent of a compound that is named as a salt.
Assays:
Na^+,K^+ -ATPase [1] = biological target: T1, Na^+,K^+ -ATPase (Homo sapiens, UniProt P05023); test: displacement of the specific 3H-ouabain binding from the purified Na+,K+-ATPase receptor
T1 construct: Na^+,K^+ -ATPase receptor purified according to Jorghensen; from tissue
Source text: (§1) To test the affinity for the receptor site of the Na^+,K^+ -ATPase and the agonist or antagonist activity on the enzyme, the following tests were used:
a) displacement of the specific ^3 H-ouabain binding from the Na^+,K^+ -ATPase receptor purified according to Jorghensen (Jorghensen P., BBA, 1974, 356, 36) and Erdmann (Erdmann E. et al., Arzneim. Forsh., 1984, 34, 1314);

Na^+,K^+ -ATPase [2] = biological target: T1, Na^+,K^+ -ATPase; test: inhibition of the activity of the purified Na+,K+-ATPase (% hydrolysis of 32P-ATP); format: biochemical
Source text: as §1
b) inhibition of the activity of the purified Na^+,K^+ -ATPase measured as % of hydrolysis of ^32 P-ATP in presence and in absence of the tested compound (Doucet A. et al., Am. J. Physiol., 1986, 251, F851)

[3] = tested on: spontaneous hypertensive rats (MHS); test: effect of 5 week-treatment on the development of hypertension; SBP and HR by tail cuff method; format: in vivo, rat (MHS); conditions: 20 mg/Kg/os daily in Methocel 0.5%, 5 weeks; for SBP: n=7, controls 172 +/- 5,0; for HR: n=7, controls 380 +/- 6,3
Protocol: Systolic blood pressure (SBP) and heart rate (HR) were measured, by the tail cuff method, in young prehypertensive male rats (MHS or SHR) strains before the development of hypertension (4 weeks of age) for recording the basal values of SBP. Groups of 7 rats were formed and subdivided in control and treated groups. The compound, suspended in Methocel 0.5% (w/v), was orally given daily for at least 5 weeks to the treated groups. The control group received only Methocel.
SBP and HR were measured weekly 6 and 24 hrs after treatment. After 5 weeks of treatment, when hypertension was fully developed in the control group (9 weeks of age), washout was started for at least one week, to verify whether the treatment maintained blood pressure low or reestablished the basal values.

[4] = 3H-ouabain, purified Na+,K+-ATPase, read-out: Binding 3H-Ouab. Displacement log IC50 (converted)
[5] = 32P-ATP hydrolysis, purified Na+,K+-ATPase, read-out: Inhibitory Activity log IC50 (converted)

Which results are given for `CN(C)CCONC[C@H]1CC[C@]2(O)C[C@@H](c3ccccc3)CC[C@]12C` [I-df, (1S,3aS,5S,7aR)-1-(2-Dimethylaminoethoxyamino)methyl-5-phenyl-7a-methylperhydroinden-3a-ol oxalate]?
IC50 (Na^+,K^+ -ATPase [1]): 6.31 µM; IC50 (Na^+,K^+ -ATPase [2]): 50.1 µM

`CN(C)CCO/N=C/[C@H]1CC[C@]2(O)C[C@@H](c3ccc(CO)cc3)CC[C@]12C` [I-bc, (1S,3aS,5S,7aR)-1-[(E)-2-Dimethylaminoethoxyimino]methyl-5-(4-hydroxymethylphenyl)-7a-methylperhydroinden-3a-ol] was tested. Which IC50 (Na^+,K^+ -ATPase [1]; [4]) did it give?
The IC50 was 5.01 µM.

What about the SBP [3] of the same molecule?
The SBP was 160 +/- 7,8 mm Hg.

And the HR [3]?
The HR was 377 +/- 10,5 bEATS/min.

What about the IC50 (Na^+,K^+ -ATPase [2]; [5]) of the same molecule?
Its IC50 is 50.1 µM.

For `C[C@]12CC[C@H](c3ccc(CO)cc3)C[C@@]1(O)CC[C@@H]2/C=N/OCCN` [I-bb, (1S,3aS,5S,7aR)-1-[(E)-2-Aminoethoxyimino]methyl-5-(4-hydroxymethylphenyl)-7a-methylperhydroinden-3a-ol], which IC50 (Na^+,K^+ -ATPase [1]; [4]) is on record?
The IC50 was 1.58 µM.

And the IC50 (Na^+,K^+ -ATPase [2]; [5])?
Its IC50 is 25.1 µM.

How did the IC50 (Na^+,K^+ -ATPase [1]) turn out when `Cc1ccc([C@H]2CC[C@]3(C)[C@@H](/C=N/OCCN)CC[C@]3(O)C2)cc1` [I-bg, (1S,3aS,5S,7aR)-1-[(E)-2-Aminoethoxyimino]methyl-5-(4-methylphenyl)-7a-methylperhydroinden-3a-ol oxalate] was run?
The IC50 was 3.98 µM.

What about the IC50 (Na^+,K^+ -ATPase [2]) of the same molecule?
The IC50 was 31.6 µM.

Which results are given for `CN(C)CCO/N=C/[C@H]1CC[C@]2(O)C[C@@H](c3ccccc3)CC[C@]12C` [I-ap, (1S,3aS,5S,7aR)-1-[(E)-2-Dimethylaminoethoxyimino]methyl-5-phenyl-7a-methylperhydroinden-3a-ol]?
IC50 (Na^+,K^+ -ATPase [1]; [4]): 2 µM; SBP [3]: 155 +/- 4,3 mm Hg; HR [3]: 370 +/- 10,5 bEATS/min.; IC50 (Na^+,K^+ -ATPase [2]; [5]): 39.8 µM

How did the IC50 (Na^+,K^+ -ATPase [1]) turn out when `CN(C)CCONC[C@H]1CC[C@]2(O)C[C@@H](c3cccc(O)c3)CC[C@]12C` [I-di, (1S,3aS,5S,7aR)-1-(2-Dimethylaminoethoxyamino)methyl-5-(3-hydroxyphenyl)-7a-methylperhydroinden-3a-ol oxalate] was run?
Its IC50 is 7.94 µM.

What about the IC50 (Na^+,K^+ -ATPase [2]) of the same molecule?
The IC50 was 50.1 µM.

`CN(C)CCO/N=C/[C@H]1CC[C@]2(O)C/C(=C\CCO)CC[C@]12C` [I-bx, (1S,3aS,7aR)-1-[(E)-2-Dimethylaminoethoxyimino]methyl-5-[(Z)-3-hydroxypropyliden]-7a-methylperhydroinden-3a-ol] was tested. Which IC50 (Na^+,K^+ -ATPase [1]; [4]) did it give?
The IC50 was 12.6 µM.

What about the IC50 (Na^+,K^+ -ATPase [2]; [5]) of the same molecule?
The IC50 was 63.1 µM.

For `CN(C)CCO/N=C/[C@H]1CC[C@]2(O)C[C@@H](c3ccc(O)cc3)CC[C@]12C` [I-ax, (1S,3aS,5S,7aR)-1-[(E)-2-Dimethylaminoethoxyimino]methyl-5-(4-hydroxyphenyl)-7a-methylperhydroinden-3a-ol], which IC50 (Na^+,K^+ -ATPase [1]; [4]) is on record?
The IC50 was 1.58 µM.

And the SBP [3]?
The SBP was 156 +/- 4,6 mm Hg.

And the HR [3]?
Its HR is 383 +/- 11,4 bEATS/min.

What about the IC50 (Na^+,K^+ -ATPase [2]; [5]) of the same molecule?
The IC50 was 39.8 µM.

With `CN(C)CCO/N=C/[C@H]1CC[C@]2(O)C/C(=C/CCO)CC[C@]12C` [I-by, (1S,3aS,7aR)-1-[(E)-2-Dimethylaminoethoxyimino]methyl-5-[(E)-3-hydroxypropyliden]-7a-methylperhydroinden-3a-ol] as the molecule, how does the IC50 (Na^+,K^+ -ATPase [1]; [4]) read?
The IC50 was 20 µM.

What about the IC50 (Na^+,K^+ -ATPase [2]; [5]) of the same molecule?
The IC50 was 63.1 µM.

For `CN(C)CCO/N=C/[C@H]1CC[C@]2(O)C[C@@H](c3cccc(O)c3)CC[C@]12C` [I-au, (1S,3aS,5S,7aR)-1-[(E)-2-Dimethylaminoethoxyimino]methyl-5-(3-hydroxyphenyl)-7a-methylperhydroinden-3a-ol], which IC50 (Na^+,K^+ -ATPase [1]; [4]) is on record?
Its IC50 is 6.31 µM.

What about the IC50 (Na^+,K^+ -ATPase [2]; [5]) of the same molecule?
Its IC50 is 50.1 µM.

Which IC50 (Na^+,K^+ -ATPase [1]; [4]) does the source give for `Cc1ccc([C@H]2CC[C@]3(C)[C@@H](/C=N/OCCN(C)C)CC[C@]3(O)C2)cc1` [I-bh, (1S,3aS,5S,7aR)-1-[(E)-2-Dimethylaminoethoxyimino]methyl-5-(4-methylphenyl)-7a-methylperhydroinden-3a-ol] here?
The IC50 was 6.31 µM.

And the IC50 (Na^+,K^+ -ATPase [2]; [5])?
Its IC50 is 50.1 µM.
